From US20070128217A1 (priority 2003, published 2007)

How the values were obtained:
[1] = tested on: control sera (pooled serum of ten healthy LUMC hospital workers; commercial negative donor pooled serum from the Dutch bloodbank); type: binding, human; parameters: Binding of Control serum LUMC to linear peptides / Binding of Control serum Blood-bank to linear peptides / Binding of Control serum LUMC to looped peptides / Binding of Control Serum Blood-Bank to Looped peptides / Binding of Control serum LUMC to linear peptides of the protein M of SARS-CoV Urbani / Binding of Control serum Blood-bank to linear peptides of the protein M of SARS-CoV Urbani / Binding of Control serum LUMC to looped peptides of the protein M of SARS-CoV Urbani / Binding of Control Serum Blood-Bank to Looped peptides of the protein M of SARS-CoV Urbani: unit not given here
[2] = tested on: antibodies in sera from SARS patients (sera 1a, 1b, 2, 6, 37, 62, London, SARS-yellow, SARS-green); type: binding, human; parameters: Binding of serum 6 to linear peptides of protein X1 of SARS-CoV Urbani / Binding of serum 37 to linear peptides of protein X1 of SARS-CoV Urbani / Binding of serum 6 to looped/cyclic peptide (PEPSCAN-ELISA) / Binding of serum 37 to looped/cyclic peptide (PEPSCAN-ELISA) / Binding of serum 37 to looped/cyclic peptides of protein X1 of SARS-CoV Urbani / Binding of serum 6 to linear peptides of protein X2 / Binding of serum 37 to linear peptides of protein X2 / Binding of serum 37 to looped/cyclic peptides of protein X2 of SARS-CoV Urbani / Binding of serum 6 to linear peptides of protein M of SARS-CoV Urbani / Binding of serum 37 to linear peptides of protein M of SARS-CoV Urbani / Binding of serum 6 to looped/cyclic peptides of protein M of SARS-CoV Urbani / Binding of serum 37 to looped/cyclic peptides of protein M of SARS-CoV Urbani / Binding of serum 6 to linear peptides of protein X3 of SARS-CoV Urbani / Binding of serum 37 to linear peptides of protein X3 of SARS-CoV Urbani / Binding of serum 37 to looped/cyclic peptides of protein X3 of SARS-CoV Urbani / Binding of serum 6 to linear peptides of protein X4 of SARS-CoV Urbani / Binding of serum 37 to linear peptides of protein X4 of SARS-CoV Urbani / Binding of serum 37 to looped/cyclic peptides of protein X4 of SARS-CoV Urbani / Binding of serum 6 to linear peptides of protein X5 of SARS-CoV Urbani / Binding of serum 37 to linear peptides of protein X5 of SARS-CoV Urbani / Binding of serum 37 to looped/cyclic peptides of protein X5 of SARS-CoV Urbani / Binding of serum 6 to linear peptides of protein N of SARS-CoV Urbani / Binding of serum 37 to linear peptides of protein N of SARS-CoV Urbani / Binding of serum 6 to linear peptide (PEPSCAN-ELISA) / Binding of serum 1a to looped/cyclic peptides of protein N of SARS-CoV Urbani / Binding of serum 1b to looped/cyclic peptides of protein N of SARS-CoV Urbani / Binding of serum 2 to looped/cyclic peptides of protein N of SARS-CoV Urbani / Binding of serum 6 to looped/cyclic peptides of protein N of SARS-CoV Urbani / Binding of serum 37 to looped/cyclic peptides of protein N of SARS-CoV Urbani / Binding of serum 62 to looped/cyclic peptides of protein N of SARS-CoV Urbani / Binding of serum London to looped/cyclic peptides of protein N of SARS-CoV Urbani / Binding of serum SARS-green to looped/cyclic peptides of protein N of SARS-CoV Urbani: unit not given here
[3] = tested on: rabbit serum obtained by immunizing a rabbit with the SARS-CoV strain Frankfurt 1; type: binding; parameters: Binding of a rabbit serum to linear peptides / Binding of a rabbit serum to looped peptides / Rabbit serum linear peptides / Rabbit serum looped peptides / Binding of a rabbit serum to linear peptides of protein N of SARS-CoV Urbani (Rabbit serum linear peptides) / Binding of a rabbit serum to looped/cyclic peptides of protein N of SARS-CoV Urbani (Rabbit serum looped peptides): unit not given here
[4] = tested on: recombinant human anti-SARS-CoV antibody 03-018; type: binding; parameters: Binding of antibody 03-018 to linear peptides of the N protein of SARS-CoV Urbani / Binding of antibody 03-018 to looped/cyclic peptides of the N protein of SARS-CoV Urbani: unit not given here

## EASKKPRQKRTATKQ
[1]
  Binding of Control Serum Blood-Bank to Looped peptides: 0.8
  Binding of Control serum Blood-bank to linear peptides: 0.9
  Binding of Control serum LUMC to linear peptides: 0.8
  Binding of Control serum LUMC to looped peptides: 0.6
[2]
  Binding of serum 1a to linear peptide (PEPSCAN-ELISA): 0.2
  Binding of serum 1a to looped/cyclic peptides of protein N of SARS-CoV Urbani: 0.3
  Binding of serum 1b to linear peptide (PEPSCAN-ELISA): 0.1
  Binding of serum 1b to looped/cyclic peptides of protein N of SARS-CoV Urbani: 0.2
  Binding of serum 2 to linear peptide (PEPSCAN-ELISA): 0.3
  Binding of serum 2 to looped/cyclic peptides of protein N of SARS-CoV Urbani: 0.4
  Binding of serum 6 to linear peptide (PEPSCAN-ELISA): 0.3
  Binding of serum 6 to looped/cyclic peptides of protein N of SARS-CoV Urbani: 0.3
  Binding of serum 37 to linear peptide (PEPSCAN-ELISA): 0.7
  Binding of serum 37 to looped/cyclic peptides of protein N of SARS-CoV Urbani: 0.6
  Binding of serum 62 to linear peptide (PEPSCAN-ELISA): 0.7
  Binding of serum 62 to looped/cyclic peptides of protein N of SARS-CoV Urbani: 0.5
  Binding of serum London to linear peptide (PEPSCAN-ELISA): 0.5
  Binding of serum London to looped/cyclic peptides of protein N of SARS-CoV Urbani: 0.5
  Binding of serum SARS-green to linear peptide (PEPSCAN-ELISA): 0.3
  Binding of serum SARS-green to looped/cyclic peptides of protein N of SARS-CoV Urbani: 0.3
  Binding of serum SARS-yellow to linear peptide (PEPSCAN-ELISA): 0.6
  Binding of serum SARS-yellow to looped/cyclic peptides of protein N of SARS-CoV Urbani: 0.4
[3]
  Binding of a rabbit serum to linear peptides of protein N of SARS-CoV Urbani (Rabbit serum linear peptides): 0.2
  Binding of a rabbit serum to looped/cyclic peptides of protein N of SARS-CoV Urbani (Rabbit serum looped peptides): 0.2
[4]
  Binding of antibody 03-018 to linear peptides of the N protein of SARS-CoV Urbani: 0.1
  Binding of antibody 03-018 to looped/cyclic peptides of the N protein of SARS-CoV Urbani: 0.3

## EASLPYGANKEGIVW
[1]
  Binding of Control Serum Blood-Bank to Looped peptides: 0.7
  Binding of Control serum Blood-bank to linear peptides: 0.8
  Binding of Control serum LUMC to linear peptides: 0.6
  Binding of Control serum LUMC to looped peptides: 0.6
[2]
  Binding of serum 1a to linear peptides of protein N of SARS-CoV Urbani: 0.2
  Binding of serum 1a to looped/cyclic peptides of protein N of SARS-CoV Urbani: 0.3
  Binding of serum 1b to linear peptides of protein N of SARS-CoV Urbani: 0.1
  Binding of serum 1b to looped/cyclic peptides of protein N of SARS-CoV Urbani: 0.2
  Binding of serum 2 to linear peptides of protein N of SARS-CoV Urbani: 0.2
  Binding of serum 2 to looped/cyclic peptides of protein N of SARS-CoV Urbani: 0.4
  Binding of serum 6 to linear peptides of protein N of SARS-CoV Urbani: 0.1
  Binding of serum 6 to looped/cyclic peptides of protein N of SARS-CoV Urbani: 0.2
  Binding of serum 37 to linear peptides of protein N of SARS-CoV Urbani: 0.5
  Binding of serum 37 to looped/cyclic peptides of protein N of SARS-CoV Urbani: 0.7
  Binding of serum 62 to linear peptides of protein N of SARS-CoV Urbani: 0.5
  Binding of serum 62 to looped/cyclic peptides of protein N of SARS-CoV Urbani: 0.6
  Binding of serum London to linear peptides of protein N of SARS-CoV Urbani: 0.4
  Binding of serum London to looped/cyclic peptides of protein N of SARS-CoV Urbani: 0.5
  Binding of serum SARS-green to linear peptides of protein N of SARS-CoV Urbani: 0.2
  Binding of serum SARS-green to looped/cyclic peptides of protein N of SARS-CoV Urbani: 0.5
  Binding of serum SARS-yellow to linear peptides of protein N of SARS-CoV Urbani: 0.6
  Binding of serum SARS-yellow to looped/cyclic peptides of protein N of SARS-CoV Urbani: 0.2
[3]
  Binding of a rabbit serum to linear peptides of protein N of SARS-CoV Urbani (Rabbit serum linear peptides): 0.1
  Binding of a rabbit serum to looped/cyclic peptides of protein N of SARS-CoV Urbani (Rabbit serum looped peptides): 0.3
[4]
  Binding of antibody 03-018 to linear peptides of the N protein of SARS-CoV Urbani: 0.1
  Binding of antibody 03-018 to looped/cyclic peptides of the N protein of SARS-CoV Urbani: 0.2
